Tests used:
[1] = system: CYP2C9; assay: CYP induction in human hepatocytes, CYP2C9 enzyme activity
Description: (§1) […] […] […] Enzyme activity for each CYP isoform was reported as a fold change over vehicle control and the percent of positive control (detailed calculation in Supplementary 1.1). Hepatocytes were harvested with a lysis buffer from RNeasy 96 Kit (Qiagen Inc., Germantown, MD, USA) to isolate RNA, which was analyzed by real-time quantitative polymerase chain reaction (RT-PCR). […] Emax (the maximal observed induction) and EC50 (the concentration that supports half-maximal induction) were estimated by non-linear regression of fold increase in CYP mRNA expression versus concentration plots.
(§2) The fold of vehicle control and the percent of positive control were calculated with the formulas below:
(§3) Fold of vehicle control = CYPs activity of test compound (or positive control) treated sample / CYPs activity of vehicle control treated sample
(§4) % of positive control = [(fold change in treated sample)-1] / [(fold change in positive control)-1] × 100
(§5) Based on the enzyme activity, a minimum of 2-fold increase compared to vehicle control for the positive control and ≥40% of the positive control for the test article was considered as the cutoff for a positive signal in in vitro induction assay.

[2] = system: CYP2C8; assay: CYP induction in human hepatocytes, CYP2C8 enzyme activity
Description: as §1, §2, §3, §4, §5

[3] = system: CYP1A2 mRNA; assay: in vitro; conditions: human; for EC50 at 48 h: EC50, CYP1A2 expression
Description: as §1, §4
(§6) Based on the gene expression, a minimum of 4-fold increase of positive control compared to vehicle control, a minimum of 2-fold increase of the test article compared vehicle control and increased in a concentration-dependent manner was considered as the cutoff for a positive signal in in vitro induction assay.

[4] = system: CYP2C8 mRNA; assay: CYP induction in human hepatocytes, CYP2C8 mRNA (RT-PCR)
Description: as §1, §4, §6

[5] = system: plasma proteins; assay: Plasma protein binding (RED), mouse plasma; format: in vitro ADME
Description: The plate containing plasma and buffer was equilibrated for 6 h in a 37°C water shaking bath. After incubation, aliquots of buffer and plasma (20 µL) on both sides were collected and precipitated using organic solvents. […] The post-dialysis recovery of amdizalisib was also measured.

[6] = target: T1, CYP1A2 (Homo sapiens, UniProt P05177); assay: Time-dependent CYP inhibition in HLM, CYP1A2; format: in vitro ADME; conditions: 10 μM, 30 min pre-incubation with NADPH
T1 construct: tissue Life Technologies (Durham, NC, USA); host or cells: human liver microsomes
T1 sequence (P05177 1-516): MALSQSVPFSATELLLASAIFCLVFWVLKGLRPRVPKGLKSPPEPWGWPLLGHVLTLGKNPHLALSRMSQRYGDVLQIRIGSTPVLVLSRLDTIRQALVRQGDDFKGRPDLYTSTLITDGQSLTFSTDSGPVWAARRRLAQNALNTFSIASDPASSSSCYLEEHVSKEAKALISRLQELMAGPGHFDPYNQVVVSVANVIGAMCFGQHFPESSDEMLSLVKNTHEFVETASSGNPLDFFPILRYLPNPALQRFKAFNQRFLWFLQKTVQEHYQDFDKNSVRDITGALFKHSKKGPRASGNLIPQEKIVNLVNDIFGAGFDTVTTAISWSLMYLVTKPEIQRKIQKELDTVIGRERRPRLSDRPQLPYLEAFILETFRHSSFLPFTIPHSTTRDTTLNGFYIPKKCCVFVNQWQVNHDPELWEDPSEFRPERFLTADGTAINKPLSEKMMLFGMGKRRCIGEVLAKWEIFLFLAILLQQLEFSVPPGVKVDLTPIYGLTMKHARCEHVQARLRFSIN
Description: The procedure of time-dependent CYP inhibition was similar to that used for CYP reversible inhibition, as mentioned above, except that a pre-incubation step was added. […] Another appropriate volume of the NADPH-regenerating system and probe substrate were added to initiate the CYP isoform enzyme activity test step. For this step, the incubation period was 10 min, except for CYP2B6, CYP2C8, and CYP3A4/5 (probe substrate: midazolam), which was 3 min to make sure the reaction was under initial linear rates. After incubation for the designated time periods at 37°C, the ice-cold acetonitrile containing IS was added to quench the reaction. […] (Ainactivator/[…] represents the enzyme activity remaining due to the inhibition by the diluted inactivator in the enzyme activity test step, and (Ainactivator/[…] represents the remaining enzyme activity due to pre-incubation loss plus inhibition by the diluted inactivator in the enzyme activity test step.

## C[C@H](Nc1ncnc(N)c1C#N)c1cc2ncc(Cl)n2nc1-c1ccccc1 [Amdizalisib]
[1]; CYP2C9, donor eight, 20 µM
  Enzyme activity Percent of PC (%): 14.5%
[1]; female, human, 48 h, 0.3 µM
  Enzyme activity Percent of PC (%): 5.63%
[1]; female, human, 48 h, 3 µM
  Enzyme activity Percent of PC (%): 30.0%
[1]; female, human, 48 h, 20 µM
  Enzyme activity Percent of PC (%): 38.1%
[1]; male, human, 48 h, 20 µM
  Enzyme activity Percent of PC (%): 36.5%
[2]; CYP 2C8, donor one, 3 µM
  Enzyme activity Percent of PC (%): 10.8%
[2]; female, human, 48 h, 0.3 µM
  Enzyme activity Percent of PC (%): 5.21%
[2]; female, human, 48 h, 20 µM
  Enzyme activity Percent of PC (%): -19.4%
[3]; both, hepatocytes, 48 h, 20 µM
  induction on CYP1A2 mRNA expression: >2-fold induction on CYP1A2, 2B6, 3A4, 2C9 mRNA expression at 20 uM
[3]; female
  EC50 at 48 h: 9.57 µM
[3]; male, 48 h, 1 µM
  Gene expression Percent of PC (%): 3.60%
[3]; male, 48 h, 3 µM
  Gene expression Percent of PC (%): 0.30%
[3]; male, 48 h, 10 µM
  Gene expression Percent of PC (%): 10.7%
[3]; male, 48 h, 20 µM
  Gene expression Percent of PC (%): 8.20%
[3]; male, 48 h, 30 µM
  Gene expression Percent of PC (%): 14.2%
[3]; male
  EC50 at 48 h: 7.73 µM
[4]; CYP 2C8, donor four, 3 µM
  Gene expression Percent of PC (%): 14.5%
[4]; female, human, 48 h, 0.3 µM
  Gene expression Percent of PC (%): 7.24%
[4]; female, human, 48 h, 3 µM
  Gene expression Percent of PC (%): 13.5%
[4]; female, human, 48 h, 20 µM
  Gene expression Percent of PC (%): 3.97%
[4]; male, human, 48 h, 3 µM
  Gene expression Percent of PC (%): 9.01%
[5]; 1 µM
  Binding fraction to plasma proteins, Mouse: 91.5 ± 1.01%
[5]; mouse, 6 h, 0.1 µM, pH 7.4
  Binding fraction to plasma proteins, Mouse: 91.1 ± 0.95%
[5]; mouse, 6 h, 20 µM, pH 7.4
  Binding fraction to plasma proteins, Mouse: 91.3 ± 0.89%
[6]
  activity loss of CYP1A2: less than 10%

From publication PMC11211886 (Frontiers in Pharmacology, 2024)
